Data published in the Kinase Knowledgebase extract (Sharma et al. 2016).

Target: PIK3CA (human) (UniProt P42336)
Assay: Assessment of PIK3CA Kinase Activity

Chain of PIK3CA (human) (P42336 whole entry, looked up): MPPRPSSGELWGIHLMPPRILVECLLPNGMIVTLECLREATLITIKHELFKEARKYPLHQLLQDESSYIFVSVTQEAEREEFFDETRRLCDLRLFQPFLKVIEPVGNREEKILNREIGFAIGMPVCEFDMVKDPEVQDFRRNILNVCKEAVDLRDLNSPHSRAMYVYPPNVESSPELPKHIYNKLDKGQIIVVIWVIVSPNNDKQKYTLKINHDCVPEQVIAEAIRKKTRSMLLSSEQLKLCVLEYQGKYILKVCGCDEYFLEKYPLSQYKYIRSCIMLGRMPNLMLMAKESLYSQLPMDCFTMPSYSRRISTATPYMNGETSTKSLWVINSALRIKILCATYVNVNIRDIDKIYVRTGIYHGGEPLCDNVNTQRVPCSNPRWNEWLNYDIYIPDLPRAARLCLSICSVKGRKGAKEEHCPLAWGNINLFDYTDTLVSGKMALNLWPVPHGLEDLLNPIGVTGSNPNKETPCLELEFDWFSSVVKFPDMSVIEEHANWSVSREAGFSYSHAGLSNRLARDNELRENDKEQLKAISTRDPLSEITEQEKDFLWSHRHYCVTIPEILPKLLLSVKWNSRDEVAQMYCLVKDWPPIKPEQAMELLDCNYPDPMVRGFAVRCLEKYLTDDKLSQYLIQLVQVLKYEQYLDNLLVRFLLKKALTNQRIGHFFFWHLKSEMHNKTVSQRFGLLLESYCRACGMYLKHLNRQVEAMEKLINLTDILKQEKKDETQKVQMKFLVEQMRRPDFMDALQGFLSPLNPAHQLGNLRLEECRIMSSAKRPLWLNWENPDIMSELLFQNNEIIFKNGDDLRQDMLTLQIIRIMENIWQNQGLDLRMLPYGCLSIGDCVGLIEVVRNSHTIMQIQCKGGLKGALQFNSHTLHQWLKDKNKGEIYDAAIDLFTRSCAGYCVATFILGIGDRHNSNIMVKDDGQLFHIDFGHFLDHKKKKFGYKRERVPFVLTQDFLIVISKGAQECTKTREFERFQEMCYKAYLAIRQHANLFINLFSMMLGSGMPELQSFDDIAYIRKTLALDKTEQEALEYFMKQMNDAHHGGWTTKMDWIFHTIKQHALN

`CN(C)C(=O)c1ccc(NC(=O)Nc2ccc(-c3nc(N4CCOCC4)c4cc(F)c(-c5cnn(C)c5)cc4n3)cc2)cc1` and `CN(C)C(=O)c1ccc(NC(=O)Nc2ccc(-c3nc(N4CCOCC4)c4ccc(-c5cncc(F)c5)cc4n3)cc2)cc1` cannot be ordered by IC50: < 50 nM for the first, < 50 nM for the second.

`CN(C)C(=O)c1ccc(NC(=O)Nc2ccc(-c3nc(N4CCOCC4)c4ccc(-c5cccnc5F)cc4n3)cc2F)cc1` and `Cc1ccc(-c2ccc3c(N4CCOCC4)nc(-c4ccc(NC(=O)Nc5ccc(C(=O)N(C)C)cc5F)cc4)nc3c2)cn1` cannot be ordered by IC50: < 50 nM for the first, < 50 nM for the second.

First: CN(C)C(=O)c1ccc(NC(=O)Nc2ccc(-c3nc(N4CCOCC4)c4ccc(-c5ccc(N)nc5)cc4n3)cc2)c(F)c1
Second: CN(C)C(=O)c1ccc(NC(=O)Nc2ccc(-c3nc(N4CCOCC4)c4ccc(-c5cnc(N)nc5)cc4n3)cc2)cc1
The IC50 of the first is higher: 50 to 200 nM for the first, < 50 nM for the second. The second is the more potent here.

`Cc1noc(C)c1-c1ccc2c(N3CCOCC3)nc(-c3ccc(NC(=O)Nc4ccc(C(=O)N(C)C)cc4)cc3F)nc2c1` and `Cc1ccc(-c2ccc3c(N4CCOCC4)nc(-c4ccc(NC(=O)Nc5ccc(C(=O)N(C)C)cc5)cc4F)nc3c2)o1` fall in the same range of IC50: 50 to 200 nM for the first, 50 to 200 nM for the second.

`COc1ncccc1-c1ccc2c(N3CCOCC3)nc(-c3ccc(NC(=O)Nc4ccc(C(=O)N(C)C)cc4)cc3F)nc2c1` and `COc1ccc(-c2ccc3c(N4CCOCC4)nc(-c4ccc(NC(=O)Nc5ccc(C(=O)N(C)C)c(F)c5)cc4)nc3c2)cn1` fall in the same range of IC50: 50 to 200 nM for the first, 50 to 200 nM for the second.

First: CN(C)C(=O)c1ccc(NC(=O)Nc2ccc(-c3nc(N4CCOCC4)c4ccc(-c5cncnc5)cc4n3)cc2F)cn1
Second: CN(C)C(=O)c1ccc(NC(=O)Nc2ccc(-c3nc(N4CCOCC4)c4ncc(-c5cncnc5)cc4n3)cc2)c(F)c1
The IC50 of the first is higher: 50 to 200 nM for the first, < 50 nM for the second. The second is the more potent here.

`CN(C)[C@H]1CCN(C(=O)c2ccc(NC(=O)Nc3ccc(-c4nc(N5CCOCC5)c5ccc(-c6cncnc6)cc5n4)cc3F)cc2)C1` and `N[C@H]1CCN(C(=O)c2ccc(NC(=O)Nc3ccc(-c4nc(N5CCOCC5)c5ccc(-c6cncnc6)cc5n4)cc3)cc2)C1` cannot be ordered by IC50: < 50 nM for the first, < 50 nM for the second.

`CN(C)C(=O)c1ccc(NC(=O)Nc2ccc(-c3nc(N4CCOCC4)c4ccc(-c5cncc(S(C)(=O)=O)c5)cc4n3)cc2)cc1` and `CC(=O)Nc1cncc(-c2ccc3c(N4CCOCC4)nc(-c4ccc(NC(=O)Nc5ccc(C(=O)N(C)C)cc5)cc4)nc3c2)c1` cannot be ordered by IC50: < 50 nM for the first, < 50 nM for the second.

First: CN(C)C(=O)c1ccc(NC(=O)Nc2ccc(-c3nc(N4CCOCC4)c4ccc(-c5cncnc5)cc4n3)cc2)cc1F
Second: CN(C)C(=O)c1ccc(NC(=O)Nc2ccc(-c3nc(N4CCOCC4)c4ccc(-c5ccco5)cc4n3)cc2)cc1F
The IC50 of the first is lower: < 50 nM for the first, 50 to 200 nM for the second.

`COc1ncc(-c2cnc3c(N4CCOCC4)nc(-c4ccc(NC(=O)Nc5ccc(C(=O)N(C)C)cc5)cc4F)nc3c2)cn1` and `COc1ncc(-c2cnc3c(N4CCOCC4)nc(-c4ccc(NC(=O)Nc5ccc(C(=O)N(C)C)cc5)cc4)nc3c2)cn1` cannot be ordered by IC50: < 50 nM for the first, < 50 nM for the second.

`Cc1ccc(-c2cnc3c(N4CCOCC4)nc(-c4ccc(NC(=O)Nc5ccc(C(=O)N(C)C)cc5)cc4)nc3c2)o1` and `CN(C)C(=O)c1ccc(NC(=O)Nc2ccc(-c3nc(N4CCOCC4)c4ncc(-c5ccc(CO)o5)cc4n3)cc2F)cc1` cannot be ordered by IC50: < 50 nM for the first, < 50 nM for the second.

First: CN(C)C1CCN(C(=O)c2ccc(NC(=O)Nc3ccc(-c4nc(N5CCOCC5)c5ccc(-c6cccnc6F)cc5n4)cn3)cc2)CC1
Second: CN1CCN(C(=O)c2ccc(NC(=O)Nc3ccc(-c4nc(N5CCOCC5)c5ccc(-c6cnn(C)c6)cc5n4)cc3)cc2)CC1
The IC50 of the first is lower: < 50 nM for the first, 50 to 200 nM for the second. The first is the more potent here.

First: CN(C)C(=O)c1ccc(NC(=O)Nc2ccc(-c3nc(N4CCOCC4)c4cccc(-c5cccnc5F)c4n3)cc2)cc1
Second: CN(C)C(=O)c1ccc(NC(=O)Nc2ccc(-c3nc(N4CCOCC4)c4ccc(-c5cnc6ccccc6c5)cc4n3)cc2)cc1
The IC50 of the first is higher: 50 to 200 nM for the first, < 50 nM for the second.

First: CC1CN(c2nc(-c3ccc(NC(=O)Nc4ccc(C(=O)N(C)C)cc4)cc3)nc3cc(-c4cnn(C)c4)cnc23)CCO1 (centres undefined)
Second: CN(C)C(=O)c1ccc(NC(=O)Nc2ccc(-c3nc(N4CCOCC4)c4ccc(-c5cnc(N(C)C)nc5)cc4n3)cc2F)cc1
The IC50 of the first is lower: < 50 nM for the first, 50 to 200 nM for the second. The first is the more potent here.

With `CC(=O)Nc1ccc(NC(=O)Nc2ccc(-c3nc(N4CCOCC4)c4ccc(-c5cncnc5)cc4n3)cc2)cc1` the IC50 was < 50 nM.
